Patent US12122779B2, “Pyrrolo-pyridazine derivatives as muscarinic M1 receptor positive allosteric modulators” (SUVEN LIFE SCIENCES LIMITED, priority 2018, dated 2024)

What was measured:
[1] = target: T1, recombinant human Muscarinic M1 receptor (Homo sapiens, UniProt P11229); experiment: Allosteric potency EC50 for muscarinic M1 receptor, CHO pCRE-Luc reporter cell-based assay with EC20 of acetylcholine; conditions: CHO cells, luciferase activity, in presence of EC20 of acetylcholine, 4 hours
T1 sequence (P11229 1-460): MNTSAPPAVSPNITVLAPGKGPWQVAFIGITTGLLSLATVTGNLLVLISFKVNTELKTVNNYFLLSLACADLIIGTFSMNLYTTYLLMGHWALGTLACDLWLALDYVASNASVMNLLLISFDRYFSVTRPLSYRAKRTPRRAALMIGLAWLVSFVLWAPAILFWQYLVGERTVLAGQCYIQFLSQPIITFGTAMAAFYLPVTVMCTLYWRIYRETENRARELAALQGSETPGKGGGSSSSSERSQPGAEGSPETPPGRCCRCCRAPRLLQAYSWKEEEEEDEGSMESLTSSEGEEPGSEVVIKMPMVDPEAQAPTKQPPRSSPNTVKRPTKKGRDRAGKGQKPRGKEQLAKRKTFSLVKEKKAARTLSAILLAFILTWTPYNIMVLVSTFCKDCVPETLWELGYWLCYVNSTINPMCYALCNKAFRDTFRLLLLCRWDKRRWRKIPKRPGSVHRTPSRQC
Description: Determination of Allosteric Potency EC50 Values for Muscarinic M1 Receptor
A stable CHO cell line expressing recombinant human Muscarinic M1 receptor and pCRE-Luc reporter system was used for cell-based assay. The assay offers a non-radioactive based approach to determine binding of a compound to GPCRs. In this specific assay, the level of intracellular cyclic AMP which is modulated by activation or inhibition of the receptor is measured. The recombinant cells harbor luciferase reporter gene under the control of cyclic AMP response element.
The above cells were grown in 96 well clear bottom white plates in Hams F12 medium containing 10% fetal bovine serum (FBS). Prior to the addition of compounds or standard agonist, cells were serum starved overnight. Increasing concentrations of test compounds were added along with EC20 of acetylcholine in OptiMEM medium to the cells. The incubation was continued at 37° C. in CO2 incubator for 4 hours. Medium was removed and cells were washed with phosphate buffered saline. The cells were lysed and luciferase activity was measured in a Luminometer. Luminescence units were plotted against the compound concentrations using Graphpad software.

[2] = Rodent pharmacokinetic study; type: in vivo, Male Wistar rats; conditions: male, Wistar, plasma, rat; for bioavailability: oral 3 mg/kg vs intravenous 1 mg/kg, read-out: F (%) Bioavailability
Description: Rodent Pharmacokinetic Study
Male Wistar rats (260±50 grams) were used as experimental animals. Animals were housed individually in polypropylene cage. Two days prior to study, male Wistar rats were anesthetized with isoflurane for surgical placement of jugular vein catheter. Rats were randomly divided for oral (3 mg/kg) and intravenous (1 mg/kg) dosing (n=3/group) and fasted overnight before oral dosing (p.o.). However, rats allocated to intravenous dosing food and water was provided ad libitum.
At pre-determined point, blood was collected through jugular vein and replenished with an equivalent volume of normal saline. Collected blood was transferred into a labeled eppendorf tube containing 10 μL of heparin as an anticoagulant. Typically blood samples were collected at following time points: 0.08, 0.25, 0.5, 1, 2, 4, 6, 8, and 24 h post dose. Blood was centrifuged at 4000 rpm for 10 minutes. Plasma was separated and stored frozen at −80° C. until analysis. The concentrations of the test compounds were quantified in plasma by qualified LC-MS/MS method using suitable extraction technique. The test compounds were quantified in the calibration range around 1-1000 ng/mL in plasma. Study samples were analyzed using calibration samples in the batch and quality control samples spread across the batch.
Pharmacokinetic parameters Cmax, AUCt, T1/2, Clearance and Bioavailability (F) were calculated by non-compartmental model using standard non-compartmental model by using Phoenix WinNonlin 6.0.4 version Software package.

[3] = Rodent brain penetration study; type: in vivo, Male Wistar rats; conditions: male, Wistar, brain and plasma, po; rat, 3 mg/kg p.o., brain-plasma ratio; read-out: Single dose Rat Brain Penetration (Cb/Cp) at 3 mg/kg, p.o.
Description: Rodent Brain Penetration Study
Male Wistar rats (260±40 grams) were used as experimental animals. Three animals were housed in each cage. Animals were given water and food ad libitum throughout the experiment and maintained on a 12 h light/dark cycle.
Brain penetration was determined in discrete manner in rats. One day prior to dosing day, male Wistar rats were acclimatized and randomly grouped according to their weight. At each time point (0.50, 1 and 2 h) n=3 animals were used.
The test compounds were suitably preformulated and administered orally at (free base equivalent) 3 mg/kg. Blood samples were removed via cardiac puncture by using isoflurane anesthesia. The animals were sacrificed to collect brain tissue. Plasma was separated and brain samples were homogenized and stored frozen at −20° C. until analysis. The concentrations of the test compounds in plasma and brain were determined using LC-MS/MS method.
The test compounds were quantified in plasma and brain homogenate by qualified LC-MS/MS method using suitable extraction technique. The test compounds were quantified in the calibration range of 1-500 ng/mL in plasma and brain homogenate. Study samples were analyzed using calibration samples in the batch and quality control samples spread across the batch. Extent of brain-plasma ratio (Cb/Cp) was calculated.

[4] = test system: Male Wistar rats; experiment: Object recognition task model; type: in vivo; conditions: rat, p.o.; for Exploration time mean ± S.E.M, Familiar object / Exploration time mean ± S.E.M, Novel object: choice trial 24 h after T1
Description: Object Recognition Task Model
Male Wistar rats (8-10 weeks old) were used as experimental animals. Four animals were housed in each cage. Animals were kept on 20% food deprivation from a day prior to experimentation. Water was provided ad libitum throughout the experiment. Animals were maintained on a 12 h light/dark cycle in temperature and humidity controlled room. The experiment was carried out in a circular or square arena made up of acrylic. Rats were habituated to individual arenas for up to 1 hour in the absence of any objects on day 1.
One group of 12 rats received vehicle and another set of animals received test compounds, before familiar (T1) and choice (T2) trials. During the familiarization phase, (T1), the rats were placed individually in the arena for 3 minutes, in which two identical objects (a1 and a2) were positioned 10 cm from the wall. 24 h after T1, trial for long-term memory test was performed. The same rats were placed in the same arena as they were placed in T1 trial. During the choice phase (T2) rats were allowed to explore the arena for 3 minutes in presence of a copy of familiar object (a3) and one novel object (b). During the T1 and T2 trial, explorations of each object (defined as sniffing, licking, chewing or having moving vibrissae whilst directing the nose towards the object at a distance of less than 1 cm) were recorded using stopwatch. • T1 is the total time spent exploring the familiar objects (a1+a2). • T2 is the total time spent exploring the familiar object and novel object (a3+b).
The object recognition test was performed as described in Behav. Brain Res., 1988, 31, 47-59.

| SMILES | EC50 [1] [nM] | AUC(0-t) ([2]; intravenous (bolus), 1 mg/kg) [ng·h/mL] | clearance ([2]; intravenous (bolus), 1 mg/kg) [mL/min/kg] | half-life ([2]; intravenous (bolus), 1 mg/kg) [h] | bioavailability [2] [%] | AUC(0-t) ([2]; oral (gavage), 3 mg/kg) [ng·h/mL] | Cmax ([2]; oral (gavage), 3 mg/kg) [ng/mL] | half-life ([2]; oral (gavage), 3 mg/kg) [h] | Kp [3] | Inference ([4]; 3 mg/kg) | Exploration time mean ± S.E.M, Familiar object ([4]; 3 mg/kg) [s] | Exploration time mean ± S.E.M, Novel object ([4]; 3 mg/kg) [s] | Inference ([4]; 1 mg/kg) | Exploration time mean ± S.E.M, Familiar object ([4]; 1 mg/kg) [s] | Exploration time mean ± S.E.M, Novel object ([4]; 1 mg/kg) [s] | Inference ([4]; 0.1 mg/kg) | Exploration time mean ± S.E.M, Familiar object ([4]; 0.1 mg/kg) [s] | Exploration time mean ± S.E.M, Novel object ([4]; 0.1 mg/kg) [s] |
| --- | --- | --- | --- | --- | --- | --- | --- | --- | --- | --- | --- | --- | --- | --- | --- | --- | --- | --- |
| O=C(NC1CCOCC1)c1cc(Cc2ccc(Cl)cc2)c2cccn2n1 [Example 14, N-[Tetrahydropyran-4-yl]-4-(4-chlorobenzyl)-pyrrolo[1,2-b]pyridazine-2-carboxamide] | 976 | 569 ± 74 | 27 ± 1 | 5.7 ± 0.7 | 31 ± 6 | 532 ± 102 | 68 ± 22 | 7.9 ± 1.3 | 3.26 ± 0.02 | Active | 11.28 ± 2.18 | 23.08 ± 2.96 | – | – | – | – | – | – |
| CC(C)(O)CNC(=O)c1cc(Cc2ccc(-c3cccnc3)cc2)c2cccn2n1 [Example 29, N-[2-Hydroxy-2-methyl-propyl] 4-[4-(3-pyridyl)-benzyl]-pyrrolo[1,2-b]pyridazine-2-carboxamide] | 1170 | 2280 ± 161 | 7.2 ± 0.5 | 1.5 ± 0.1 | 88 ± 4 | 6030 ± 279 | 1810 ± 327 | 2.2 ± 0.6 | 0.31 ± 0.04 | – | – | – | Active | 12.17 ± 1.26 | 22.26 ± 1.05 | – | – | – |
| O=C(NC1CCOCC1)c1cc(Cc2ccc(-c3ccncc3)cc2)c2cccn2n1 [Example 31, N-[Tetrahydropyran-4-yl] 4-[4-(4-pyridyl)-benzyl]-pyrrolo[1,2-b]pyridazine-2-carboxamide] | 1550 | 576 ± 192 | 30.3 ± 8.9 | 1.5 ± 0.4 | 114 ± 20 | 1960 ± 360 | 363 ± 40 | 2.8 ± 0.1 | 1.41 ± 0.19 | – | – | – | – | – | – | Active | 14.19 ± 1.02 | 20.18 ± 1.21 |

The next lines start with results.

| EC50 [1] [nM] | AUC(0-t) ([2]; intravenous (bolus), 1 mg/kg) [ng·h/mL] | clearance ([2]; intravenous (bolus), 1 mg/kg) [mL/min/kg] | half-life ([2]; intravenous (bolus), 1 mg/kg) [h] | bioavailability [2] [%] | AUC(0-t) ([2]; oral (gavage), 3 mg/kg) [ng·h/mL] | Cmax ([2]; oral (gavage), 3 mg/kg) [ng/mL] | half-life ([2]; oral (gavage), 3 mg/kg) [h] | Kp [3] | SMILES | Inference ([4]; 3 mg/kg) | Exploration time mean ± S.E.M, Familiar object ([4]; 3 mg/kg) [s] | Exploration time mean ± S.E.M, Novel object ([4]; 3 mg/kg) [s] | Inference ([4]; 1 mg/kg) | Exploration time mean ± S.E.M, Familiar object ([4]; 1 mg/kg) [s] | Exploration time mean ± S.E.M, Novel object ([4]; 1 mg/kg) [s] | Inference ([4]; 0.1 mg/kg) | Exploration time mean ± S.E.M, Familiar object ([4]; 0.1 mg/kg) [s] | Exploration time mean ± S.E.M, Novel object ([4]; 0.1 mg/kg) [s] |
| --- | --- | --- | --- | --- | --- | --- | --- | --- | --- | --- | --- | --- | --- | --- | --- | --- | --- | --- |
| 336 | 983 ± 91 | 17 ± 1.6 | 0.5 | 66 ± 18 | 1940 ± 520 | 933 ± 260 | 1 ± 0.1 | 0.26 ± 0.02 | Cn1cc(-c2ccc(Cc3cc(C(=O)NCC(C)(C)O)nn4cccc34)cc2)cn1 [Example 19, N-[2-hydroxy-2-methyl-propyl] 4-[4-(1-methyl-1H-pyrazol-4-yl)-benzyl]-pyrrolo[1,2-b]pyridazine-2-carboxamide] | – | – | – | – | – | – | – | – | – |
| 531 | 359 ± 58 | 47 ± 8 | 1.6 ± 0.3 | 5 ± 1 | 52 ± 8 | 16 ± 4 | 1.9 ± 1.1 | 0.38 | Cn1cc(-c2ccc(Cc3cc(C(=O)NCC4(O)CCCCC4)nn4cccc34)cc2)cn1 [Example 24, N-[l-Hydroxy-cyclohexylmethyl] 4-[4-(1-methyl-1H-pyrazol-4-yl)-benzyl]-pyrrolo[1,2-b]pyridazine-2-carboxamide] | – | – | – | – | – | – | – | – | – |
